Legend:
[1] = target: T1, recombinant human FAK1 (Homo sapiens, UniProt Q05397); assay: FAK1 HTRF assay; format: biochemical
T1 construct: fused on or other part: N-terminal 6xHis tag
Summary of the method: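 His-tagged human FAK1 (residues 692–end, Sf9-expressed), 10 nM final, with 0.5 μM biotinylated gastrin-precursor Tyr87 peptide and a 10 μM final reagent in pH 7.4 buffer, 45 min at rt. Detection used Eu anti-pTyr antibody plus SA-APC (665/620 nm). Compounds top concentration 10 μM; IC50 from % inhibition.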

[2] = target: T2, FAK phosphorylated at Y397 in HEK-FAK cell line overexpressing human FL FAK protein (Homo sapiens, UniProt Q05397); assay: Cell based assay, Phospho-FAK ELISA; settings: HEK stb; read-out: pFAK EC50 (μM) HEK stb
T2 construct: expressed in transfected cells
Source text: D. Cell Based Assay-Phospho-FAK ELISA
The DuoSet IC ELISA (R&D systems—Cat no. DYC4528-5) provided the basic components required for the development of sandwich ELISAs to measure Focal Adhesion Kinase 1 (FAK) phosphorylated at Y397 in cell lysates. An immobilized capture antibody specific for FAK, also known as PTK2, binds both phosphorylated and unphosphorylated protein. After washing away unbound material, a biotinylated detection antibody specific for FAK phosphorylated at Y397 was used to detect only phosphorylated protein, utilizing a standard Streptavidin-HRP format. The cell line used for the assay was a stable HEK-FAK cell line overexpressing human FL FAK protein, which was generated as follows.
HEK293 cells (ATCC® CRL-1573™, 10801 University Boulevard, Manassas, Va. 20110 USA) were seeded in four 100 mm petri dishes at a seeding density of 1.5×10^6 cells per plate and incubated overnight at 37° C. in a 5% CO2 incubator. The transfection mix was prepared as follows. (A) 10 μg DNA (pCDNA4 V5/HisA vector containing Zeocin as mammalian selection marker, procured from Invitrogen) with the full length human FAK gene represented by the nucleotide sequence provided in NCBI Reference Sequence: NM_153831.3, SEQ ID NO: 1:
was added to 1.5 mL Opti-MEM® (reduced serum media is a modification of Eagle's Minimum Essential Media, buffered with HEPES and sodium bicarbonate and supplemented with hypoxanthine, thymidine, sodium pyruvate, L-glutamine, trace elements and growth factors commercially available from Invitrogen) and incubated at room temperature for 5 minutes. (B) 30 μL Lipofectamine™ Transfection reagent (Life Technologies) was added to 1.5 mL Opti-MEM® and incubated at room temperature for 5 minutes. Following this, (a) and (b) were mixed and incubated at room temperature for 20 minutes. Media was removed from cells and washed with 1× phosphate buffered saline (PBS) and the transfection mix prepared above was mixed with 3 mL of Opti-MEM®, added to the cells and incubated at 37° C. Four hours later, 6 mL of 20% Dulbecco's Modified Eagle Medium (DMEM) was added to the plates and incubated at 37° C. in a 5% CO2 incubator. Approximately 72 hours after transfection, cells were subcultured at various dilutions with fresh medium containing 0.8 mg/mL Zeocin™ (Life Technologies). Cells were replenished with selective medium every 3-4 days until cell foci were identified in the FAK transfected cells and most of the cells died in the control plates. Cells from these foci were grown in the presence of selective media and the expression of FAK was confirmed by Western Blotting. Over expression of FAK in the stably-transfected cells was quantified in the cell-based ELISA assay described below by determining the signal window, with a signal window of 2 or above considered to be robust). The HEK-FAK stable cell line thus was maintained in 0.8 mg/mL Zeocin™ (Life Technologies) and used in cell-based ELISA to assess autophosphorylation of FAK.
(i) Materials • 1. Phospho-FAK (Y397)-Capture Antibody • 2. Phospho-FAK (Y397)-Detection Antibody • 3. Streptavidin-HRP • 4. Cells used for the assay-HEK over expressing human FL FAK protein
(ii) Solutions • PBS—137 mM NaCl, 2.7 mM KCl, 8.1 mM Na2HPO4, 1.5 mM KH2PO4, pH 7.2-7.4, 0.2 μm filtered. • Wash Buffer—0.05% Tween20™ in PBS, pH 7.2-7.4 • Block Buffer—1% BSA, 0.05% NaN3, in PBS, pH 7.2-7.4. • IC Diluent #1-1% BSA in PBS, pH 7.2-7.4, 0.2 μm filtered. • IC Diluent #8-1 mM EDTA, 0.5% Triton™ X-100, 5 mM NaF in PBS, pH 7.2-7.4. IC Diluent #8 was also the base buffer for IC Diluent #3, IC Diluent #7, and Lysis. • Buffer #6. […]

[3] = target: T3, Recombinant Src enzyme (Homo sapiens, UniProt P12931); assay: Src HTRF assay; format: biochemical
T3 construct: purchased Millipore 14-326; host or cells: Sf21 insect cells
Summary of the method: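 Sf21-expressed recombinant Src at 5 nM final with biotinylated N-terminally tagged Tyk2 peptide substrate at 0.5 μM final; a component freshly made in enzyme assay buffer pH7.4 was used at 10 μM final. Buffer, supplements, compound handling and procedure as in the FAK HTRF assay; dasatinib included.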

[4] = target: T4, AURKB (Aurora B) enzyme (Homo sapiens, UniProt Q96GD4); assay: Aurora B HTRF assay; format: biochemical; settings: read-out: AuroraB IC50
T4 construct: purchased Invitrogen PVR 130
Summary of the method: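 HTRF kinase assay with 5 nM Aurora B and 50 nM ULight-PLK (Ser137) peptide, with a reagent at 30 μM final; 1 h at rt. Reaction stopped with EDTA, and phospho-peptide detected with 2 nM Eu-anti-P-PLK(Ser137) antibody after 1 h at rt, read as HTRF.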

T4 sequence (Q96GD4 whole entry): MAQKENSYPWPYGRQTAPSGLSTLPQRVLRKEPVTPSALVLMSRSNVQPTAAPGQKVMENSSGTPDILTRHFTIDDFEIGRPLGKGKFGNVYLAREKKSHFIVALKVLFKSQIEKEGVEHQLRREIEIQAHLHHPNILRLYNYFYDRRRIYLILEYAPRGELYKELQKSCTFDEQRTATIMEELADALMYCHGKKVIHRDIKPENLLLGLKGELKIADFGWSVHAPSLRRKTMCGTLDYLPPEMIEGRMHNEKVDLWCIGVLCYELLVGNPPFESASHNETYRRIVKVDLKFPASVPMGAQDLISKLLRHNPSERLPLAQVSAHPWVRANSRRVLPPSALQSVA
T1 sequence (Q05397 422-680 limits assumed): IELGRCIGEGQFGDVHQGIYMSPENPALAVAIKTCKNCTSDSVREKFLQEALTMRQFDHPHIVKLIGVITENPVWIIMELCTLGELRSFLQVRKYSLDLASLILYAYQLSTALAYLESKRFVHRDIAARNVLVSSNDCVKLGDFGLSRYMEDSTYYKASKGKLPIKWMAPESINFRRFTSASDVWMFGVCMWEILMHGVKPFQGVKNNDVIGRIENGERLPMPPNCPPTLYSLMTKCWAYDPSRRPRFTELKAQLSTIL
T3 sequence (P12931 whole entry): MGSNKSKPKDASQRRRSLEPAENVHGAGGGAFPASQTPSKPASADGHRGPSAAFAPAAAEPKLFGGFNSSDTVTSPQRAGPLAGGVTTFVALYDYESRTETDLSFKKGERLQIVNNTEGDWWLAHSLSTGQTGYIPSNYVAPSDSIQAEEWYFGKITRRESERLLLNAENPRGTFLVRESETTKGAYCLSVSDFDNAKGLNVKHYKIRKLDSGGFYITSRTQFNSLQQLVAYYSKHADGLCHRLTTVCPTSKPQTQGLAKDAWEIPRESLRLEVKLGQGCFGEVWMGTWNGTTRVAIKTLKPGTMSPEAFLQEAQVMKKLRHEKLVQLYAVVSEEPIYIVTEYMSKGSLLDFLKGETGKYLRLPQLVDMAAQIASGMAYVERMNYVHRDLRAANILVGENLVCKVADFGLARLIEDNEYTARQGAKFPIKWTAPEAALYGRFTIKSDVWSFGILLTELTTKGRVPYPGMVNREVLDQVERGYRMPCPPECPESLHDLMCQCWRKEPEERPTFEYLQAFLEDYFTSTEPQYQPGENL
T2 sequence (Q05397 whole entry): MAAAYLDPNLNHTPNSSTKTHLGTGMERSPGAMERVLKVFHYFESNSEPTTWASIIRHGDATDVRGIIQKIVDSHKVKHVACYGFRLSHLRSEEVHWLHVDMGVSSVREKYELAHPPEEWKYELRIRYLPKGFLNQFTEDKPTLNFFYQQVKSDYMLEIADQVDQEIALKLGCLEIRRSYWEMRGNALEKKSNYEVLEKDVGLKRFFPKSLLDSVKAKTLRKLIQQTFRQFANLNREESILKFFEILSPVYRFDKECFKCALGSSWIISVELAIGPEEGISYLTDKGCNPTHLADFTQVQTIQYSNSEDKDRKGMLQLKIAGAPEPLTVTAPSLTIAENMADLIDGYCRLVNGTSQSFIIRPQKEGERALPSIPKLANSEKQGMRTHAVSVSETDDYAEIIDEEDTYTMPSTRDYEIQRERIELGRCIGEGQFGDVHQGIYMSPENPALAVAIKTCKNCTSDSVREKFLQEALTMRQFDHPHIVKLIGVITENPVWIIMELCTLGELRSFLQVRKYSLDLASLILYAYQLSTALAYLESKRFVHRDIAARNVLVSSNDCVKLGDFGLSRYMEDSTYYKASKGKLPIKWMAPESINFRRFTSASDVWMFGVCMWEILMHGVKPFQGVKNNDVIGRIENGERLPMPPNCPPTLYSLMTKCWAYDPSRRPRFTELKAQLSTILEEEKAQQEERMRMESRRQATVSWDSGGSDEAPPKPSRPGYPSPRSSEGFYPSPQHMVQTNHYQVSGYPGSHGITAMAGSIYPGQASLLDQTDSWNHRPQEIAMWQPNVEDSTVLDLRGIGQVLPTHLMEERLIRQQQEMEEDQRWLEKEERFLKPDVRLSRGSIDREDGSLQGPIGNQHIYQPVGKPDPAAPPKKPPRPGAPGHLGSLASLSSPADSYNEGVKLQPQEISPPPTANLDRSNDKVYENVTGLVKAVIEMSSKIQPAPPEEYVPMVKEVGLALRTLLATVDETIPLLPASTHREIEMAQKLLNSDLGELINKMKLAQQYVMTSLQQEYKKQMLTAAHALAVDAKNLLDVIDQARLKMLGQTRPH

Structure (SMILES)	IC50 [1]	EC50 [2]	IC50 [3]	IC50 [4]
COc1cc(N2CCC(O)CC2)ccc1Nc1cc2c(ccn2S(=O)(=O)c2cccc3cccnc23)cn1 [Example 400]	< 20 nM	< 0.02 µM	> 1000 nM	–
CN(c1ncccc1Cn1ccc2cnc(Nc3ccc(N4CC5CC4CN5)cc3)cc21)S(C)(=O)=O (stereo not shown) [Example 371]	–	> 1 µM	> 1000 nM	–
CC1(C)CN(c2ccccn2)c2nc(Nc3ccc4c(c3)CC(=O)N4)ncc21 [Example 740]	–	> 1 µM	> 1000 nM	> 1000 nM
COc1ccccc1S(=O)(=O)N1CCc2cnc(Nc3ccc(N4CCNCC4)cc3)nc21 [Example 344]	–	> 1 µM	–	< 20 nM
O=S(=O)(c1ccccc1Cl)n1ccc2cnc(Nc3ccc(N4CCNCC4)cc3)nc21 [Example 232]	–	> 1 µM	< 20 nM	< 20 nM
CN(c1ncccc1Cn1ccc2cnc(Nc3ccc(N4CCOCC4)cc3)cc21)S(C)(=O)=O [Example 397]	–	> 1 µM	> 1000 nM	–
N#Cc1ccccc1S(=O)(=O)n1ncc2cnc(Nc3ccc(N4CCN(CCO)CC4)cc3)cc21 [Example 419]	–	> 1 µM	> 1000 nM	–
CN(c1ccccc1Cn1ccc2cnc(Nc3ccc(N4CCNCC4=O)cc3)nc21)S(C)(=O)=O [Example 550]	< 20 nM	> 1 µM	–	< 20 nM
Cc1ccc2cccc(S(=O)(=O)n3ccc4cnc(Nc5ccc(N6CCNCC6)cc5)cc43)c2n1 [Example 369]	–	> 1 µM	> 1000 nM	< 20 nM
CN(C)C1CN(c2ccc(Nc3cc4c(ccn4S(=O)(=O)c4ccccc4C#N)cn3)cc2)C1 [Example 623]	–	> 1 µM	> 1000 nM	–
CN(c1ncccc1CN1c2nc(Nc3ccc(N4CCNCC4)cc3)ncc2C(C)(C)C1O)S(C)(=O)=O (stereo not shown) [Example 455]	–	> 1 µM	> 1000 nM	–
COc1ccccc1S(=O)(=O)n1ncc2cnc(Nc3ccc(N4CCNCC4)cc3)cc21 [Example 342]	–	> 1 µM	> 1000 nM	< 20 nM
COc1cc(N2CCN(CCO)CC2)ccc1Nc1cc2c(ccn2S(=O)(=O)c2cccc3cccnc23)cn1 [Example 386]	< 20 nM	< 0.02 µM	> 1000 nM	–
CS(=O)(=O)Nc1ccccc1Cn1ccc2cnc(Nc3ccc(N4CCNCC4)cc3)nc21 [Example 519]	–	> 1 µM	< 20 nM	–
C[C@H]1CN(c2ccc(Nc3ncc4ccn(S(=O)(=O)c5ccccc5C#N)c4n3)cc2)CCN1 [Example 242]	–	> 1 µM	–	< 20 nM
CN(C)C1CCN(c2ccc(Nc3ncc4c(n3)N(S(=O)(=O)c3cccc5ccccc35)CC4(C)C)cc2)CC1 [Example 755]	–	> 1 µM	> 1000 nM	–
O=S(=O)(c1cccc2cccnc12)n1ccc2cnc(Nc3ccc(CN4CCCC(CO)C4)cc3)nc21 (stereo not shown) [Example 247]	< 20 nM	< 0.02 µM	–	< 20 nM
CN(c1ncccc1Cn1ccc2cnc(Nc3ccc4c(c3)CC(=O)N4CCO)nc21)S(C)(=O)=O [Example 615]	–	> 1 µM	–	< 20 nM
CNC1CCN(c2ccc(Nc3ncc4c(n3)N(S(=O)(=O)c3cccc5ccccc35)CC4(C)C)cc2)CC1 [Example 707]	–	> 1 µM	> 1000 nM	–

Structure (SMILES)	IC50 [1]	EC50 [2]	IC50 [3]	IC50 [4]
COc1cc(Nc2ncc3ccn(S(=O)(=O)c4cccc5cccnc45)c3n2)ccc1N1CCNCC1 [Example 198]	< 20 nM	< 0.02 µM	–	< 20 nM
COc1cc(C(=O)N2CCOCC2)c(F)cc1Nc1ncc2ccn(Cc3ccccc3N(C)S(C)(=O)=O)c2n1 [Example 512]	–	> 1 µM	> 1000 nM	–
COc1cc(N2CCNCC2)ccc1Nc1ncc2ccn(S(=O)(=O)c3cccc4ccc(C)nc34)c2n1 [Example 365]	–	> 1 µM	> 1000 nM	–
CN(c1ncccc1Cn1ccc2cnc(Nc3ccc4[nH]cc(C5=CCNCC5)c4c3)nc21)S(C)(=O)=O [Example 152]	< 20 nM	> 1 µM	> 1000 nM	–
CC1(C)CN(S(=O)(=O)c2cccc3cccnc23)c2nc(Nc3ccc(N4CCN(CC(=O)O)CC4)cc3)ncc21 [Example 699]	–	> 1 µM	> 1000 nM	–
COc1cccc(N(C)S(C)(=O)=O)c1Cn1ccc2cnc(Nc3ccc(N4CCN[C@@H](C)C4)cc3)nc21 [Example 701]	–	> 1 µM	> 1000 nM	–
Cc1cc(Nc2ncc3ccn(S(=O)(=O)c4cccs4)c3n2)ccc1N1CCNCC1 [Example 229]	–	> 1 µM	< 20 nM	–
O=S(=O)(c1cccc2cccnc12)n1ccc2cnc(Nc3cnn(C4CCNCC4)c3)nc21 [Example 355]	–	> 1 µM	–	< 20 nM
CN(c1ncccc1Cn1ccc2cnc(Nc3ccc4c(c3)NCCO4)nc21)S(C)(=O)=O [Example 215]	< 20 nM	> 1 µM	< 20 nM	–
COc1cc(Nc2ncc3ccn(S(=O)(=O)c4cccc5cccnc45)c3n2)cc(OC)c1OC [Example 392]	–	> 1 µM	–	< 20 nM
Cn1cc(Nc2cc3c(cn2)cnn3S(=O)(=O)c2cccc3cccnc23)cn1 [Example 349]	–	> 1 µM	> 1000 nM	–
CN(c1ncccc1Cn1ccc2cnc(Nc3ccc4c(c3)CCC(=O)N4)cc21)S(C)(=O)=O [Example 31]	< 20 nM	> 1 µM	–	–
COCCN1CCN(c2ccc(Nc3cc4c(ccn4S(=O)(=O)c4cccc5cccnc45)cn3)c(OC)c2)CC1 [Example 444]	< 20 nM	< 0.02 µM	> 1000 nM	–
CC1(C)CN(c2ccccn2)c2nc(Nc3ccc(N4CCNCC4)cc3)ncc21 [Example 534]	–	> 1 µM	–	> 1000 nM
COc1cc(N2CCN(CCO)CC2)ccc1Nc1cc2c(cn1)cnn2S(=O)(=O)c1cccc2cccnc12 [Example 387]	< 20 nM	< 0.02 µM	> 1000 nM	–
C[C@@H]1CNCCN1c1ccc(Nc2cc3c(ccn3S(=O)(=O)c3ccccc3C#N)cn2)cc1 [Example 479]	–	> 1 µM	–	< 20 nM
N#Cc1ccccc1S(=O)(=O)n1ccc2cnc(Nc3ccc4c(c3)CC(=O)N4)cc21 [Example 514]	< 20 nM	> 1 µM	> 1000 nM	–
COc1cc(N2CCN(CCOC(C)=O)CC2)ccc1Nc1cc2c(ccn2S(=O)(=O)c2cccc3cccnc23)cn1 [Example 451]	< 20 nM	< 0.02 µM	> 1000 nM	–
CN(c1ccccc1Cn1ccc2cnc(Nc3ccc(-n4ccccc4=O)cc3)nc21)S(C)(=O)=O [Example 576]	–	> 1 µM	> 1000 nM	–
